# Experimental data as given in ChEMBL document CHEMBL1938231 (J Med Chem, 2011).
# Assays:
# [1] = molecular target: T1, Non-receptor tyrosine-protein kinase TYK2 (Homo sapiens, UniProt P29597); format: cell-based, BaF3
# [2] = molecular target: T2, Tyrosine-protein kinase JAK3 (Homo sapiens, UniProt P52333); format: cell-based, Sf9
# T2 sequence (P52333 whole entry): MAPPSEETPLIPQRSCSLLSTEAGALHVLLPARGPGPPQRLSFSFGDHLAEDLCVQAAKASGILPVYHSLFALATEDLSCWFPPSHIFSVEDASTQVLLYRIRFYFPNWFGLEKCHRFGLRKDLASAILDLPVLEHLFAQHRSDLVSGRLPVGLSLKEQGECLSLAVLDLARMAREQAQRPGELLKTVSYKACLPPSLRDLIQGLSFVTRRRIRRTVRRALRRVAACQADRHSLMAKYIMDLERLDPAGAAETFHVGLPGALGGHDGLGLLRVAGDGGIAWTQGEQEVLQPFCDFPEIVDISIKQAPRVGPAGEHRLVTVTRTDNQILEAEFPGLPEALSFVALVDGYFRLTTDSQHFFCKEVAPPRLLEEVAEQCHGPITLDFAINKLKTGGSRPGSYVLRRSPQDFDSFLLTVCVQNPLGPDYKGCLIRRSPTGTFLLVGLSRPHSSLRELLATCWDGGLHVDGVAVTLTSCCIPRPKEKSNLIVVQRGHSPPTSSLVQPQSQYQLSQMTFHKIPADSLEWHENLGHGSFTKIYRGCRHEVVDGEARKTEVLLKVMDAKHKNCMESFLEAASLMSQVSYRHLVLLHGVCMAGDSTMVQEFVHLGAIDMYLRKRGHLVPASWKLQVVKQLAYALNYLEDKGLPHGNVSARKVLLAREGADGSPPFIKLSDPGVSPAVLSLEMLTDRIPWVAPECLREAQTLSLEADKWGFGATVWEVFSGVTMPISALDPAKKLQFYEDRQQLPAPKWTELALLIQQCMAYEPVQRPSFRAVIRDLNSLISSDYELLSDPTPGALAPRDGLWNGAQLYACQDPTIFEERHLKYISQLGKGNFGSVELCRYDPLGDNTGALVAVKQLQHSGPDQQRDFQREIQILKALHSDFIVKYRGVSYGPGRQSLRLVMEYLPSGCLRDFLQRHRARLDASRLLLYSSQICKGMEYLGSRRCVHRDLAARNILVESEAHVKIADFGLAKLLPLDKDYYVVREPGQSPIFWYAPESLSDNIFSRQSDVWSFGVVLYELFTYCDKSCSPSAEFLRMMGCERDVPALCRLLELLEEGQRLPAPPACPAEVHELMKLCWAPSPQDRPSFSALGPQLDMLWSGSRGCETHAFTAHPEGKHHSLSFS
# [3] = molecular target: T1, Non-receptor tyrosine-protein kinase TYK2; format: cell-based, Sf9
# JAK3/JAK1 [4] = molecular target: T3, JAK3/JAK1 (Homo sapiens, UniProt P23458+P52333); format: cell-based, Blood
# T3 sequence (P23458 whole entry, one chain of several): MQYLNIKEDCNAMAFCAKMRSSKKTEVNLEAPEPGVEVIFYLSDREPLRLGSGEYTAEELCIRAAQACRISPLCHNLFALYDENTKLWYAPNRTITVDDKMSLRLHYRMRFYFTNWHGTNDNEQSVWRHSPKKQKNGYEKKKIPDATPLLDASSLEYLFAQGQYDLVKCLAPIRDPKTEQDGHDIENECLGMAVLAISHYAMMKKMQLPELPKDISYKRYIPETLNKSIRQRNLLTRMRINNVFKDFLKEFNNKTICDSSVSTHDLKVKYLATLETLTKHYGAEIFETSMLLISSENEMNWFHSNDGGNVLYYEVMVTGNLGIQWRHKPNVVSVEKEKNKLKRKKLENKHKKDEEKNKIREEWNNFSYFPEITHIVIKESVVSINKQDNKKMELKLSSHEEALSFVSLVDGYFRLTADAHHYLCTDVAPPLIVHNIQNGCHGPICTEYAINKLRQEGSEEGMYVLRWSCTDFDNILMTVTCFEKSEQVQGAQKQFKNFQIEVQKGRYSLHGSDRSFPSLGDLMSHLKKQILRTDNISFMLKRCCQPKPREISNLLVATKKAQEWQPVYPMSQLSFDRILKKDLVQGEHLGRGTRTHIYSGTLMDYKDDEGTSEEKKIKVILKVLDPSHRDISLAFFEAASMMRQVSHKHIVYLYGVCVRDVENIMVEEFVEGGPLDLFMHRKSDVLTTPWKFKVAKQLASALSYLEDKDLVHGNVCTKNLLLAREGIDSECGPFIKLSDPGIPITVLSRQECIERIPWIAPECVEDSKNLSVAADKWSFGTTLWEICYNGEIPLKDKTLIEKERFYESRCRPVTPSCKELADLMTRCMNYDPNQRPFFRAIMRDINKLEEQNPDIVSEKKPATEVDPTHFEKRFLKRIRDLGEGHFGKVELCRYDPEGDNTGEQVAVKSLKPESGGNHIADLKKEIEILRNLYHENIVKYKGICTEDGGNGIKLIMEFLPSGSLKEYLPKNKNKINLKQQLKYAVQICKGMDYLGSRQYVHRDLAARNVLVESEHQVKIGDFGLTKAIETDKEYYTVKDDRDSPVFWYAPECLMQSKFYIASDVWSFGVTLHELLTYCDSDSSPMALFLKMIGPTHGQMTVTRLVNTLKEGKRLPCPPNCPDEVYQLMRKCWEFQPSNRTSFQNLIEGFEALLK
# JAK3/JAK1 [5] = molecular target: T3, JAK3/JAK1; format: cell-based
# [6] = molecular target: T4, Tyrosine-protein kinase JAK1 (Homo sapiens, UniProt P23458); format: cell-based, BaF3
# T4 sequence (P23458 whole entry): as the sequence (P23458 whole entry, one chain of several) above
# [7] = molecular target: T4, Tyrosine-protein kinase JAK1; format: cell-based, Sf9
# [8] = molecular target: T2, Tyrosine-protein kinase JAK3; format: cell-based, BaF3
# in vitro = conditions: human, plasma
# Description: Fraction unbound in human plasma by equilibrium dialysis
# T1 sequence (P29597 whole entry): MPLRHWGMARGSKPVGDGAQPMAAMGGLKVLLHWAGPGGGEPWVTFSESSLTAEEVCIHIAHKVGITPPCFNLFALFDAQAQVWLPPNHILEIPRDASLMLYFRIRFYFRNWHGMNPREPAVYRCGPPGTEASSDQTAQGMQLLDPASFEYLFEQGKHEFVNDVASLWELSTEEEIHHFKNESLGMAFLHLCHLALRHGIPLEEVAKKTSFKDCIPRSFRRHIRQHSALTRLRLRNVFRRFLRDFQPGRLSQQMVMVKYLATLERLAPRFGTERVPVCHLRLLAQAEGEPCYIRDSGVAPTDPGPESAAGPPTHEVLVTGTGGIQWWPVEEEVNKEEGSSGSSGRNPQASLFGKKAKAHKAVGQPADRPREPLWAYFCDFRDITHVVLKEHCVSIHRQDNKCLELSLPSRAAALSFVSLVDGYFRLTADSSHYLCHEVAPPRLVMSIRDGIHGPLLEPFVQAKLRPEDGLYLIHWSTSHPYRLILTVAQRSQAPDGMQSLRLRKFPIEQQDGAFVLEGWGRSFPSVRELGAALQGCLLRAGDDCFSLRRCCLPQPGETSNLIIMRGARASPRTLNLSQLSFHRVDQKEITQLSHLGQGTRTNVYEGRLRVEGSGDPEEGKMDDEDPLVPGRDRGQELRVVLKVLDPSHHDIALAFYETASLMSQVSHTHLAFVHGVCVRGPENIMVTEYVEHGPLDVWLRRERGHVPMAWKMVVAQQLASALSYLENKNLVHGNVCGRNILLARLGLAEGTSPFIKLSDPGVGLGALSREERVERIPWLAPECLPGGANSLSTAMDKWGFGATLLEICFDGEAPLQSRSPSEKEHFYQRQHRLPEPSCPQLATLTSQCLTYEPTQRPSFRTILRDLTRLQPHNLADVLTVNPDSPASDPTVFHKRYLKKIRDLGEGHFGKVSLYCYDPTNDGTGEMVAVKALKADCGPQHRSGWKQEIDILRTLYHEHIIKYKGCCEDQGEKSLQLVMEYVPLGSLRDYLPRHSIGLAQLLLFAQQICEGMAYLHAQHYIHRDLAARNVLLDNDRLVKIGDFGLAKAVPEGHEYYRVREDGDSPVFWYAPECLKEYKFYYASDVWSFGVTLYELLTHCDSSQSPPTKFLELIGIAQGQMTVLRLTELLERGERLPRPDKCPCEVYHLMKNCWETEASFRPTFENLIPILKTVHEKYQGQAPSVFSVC
Structure (SMILES),IC50 [1] [nM],IC50 [2] [nM],IC50 [3] [nM],IC50 (JAK3/JAK1 [4]) [nM],IC50 (JAK3/JAK1 [5]) [nM],IC50 [6] [nM],IC50 [7] [nM],IC50 [8] [nM],fraction unbound (in vitro)
NC(=O)c1cnc(N)c2cc(-c3ccc(N4CCOCC4)cc3)sc12,> 25000,18,66,> 25000,548,748,39,> 25000,–
CNC(=O)c1cnc(N)c2cc(-c3ccc(N4CCOCC4)cc3)sc12,> 25000,1340,1330,–,–,1810,211,> 25000,–
CCNC(=O)c1cnc(N)c2cc(-c3ccc(N4CCOCC4)cc3)sc12,–,967,1070,–,–,–,133,–,–
Nc1ncc(C(=O)Nc2ccccc2)c2sc(-c3ccc(N4CCOCC4)cc3)cc12,–,2870,1990,–,–,–,406,–,–
Nc1ncc(C(=O)NCc2ccccc2)c2sc(-c3ccc(N4CCOCC4)cc3)cc12,–,> 125000,2600,–,–,–,307,–,–
CC(C)(C)NC(=O)c1cnc(N)c2cc(-c3ccc(N4CCOCC4)cc3)sc12,–,10300,6980,–,–,–,8820,–,–
CN(C)C(=O)c1cnc(N)c2cc(-c3ccc(N4CCOCC4)cc3)sc12,–,1660,5150,–,–,–,3100,–,–
CNC(=O)c1cnc(N)c2cc(-c3ccccc3)sc12,> 25000,767,937,–,–,–,290,> 25000,–
CNC(=O)c1cnc(N)c2cc(-c3ccc(C)cc3)sc12,> 25000,545,888,–,–,> 25000,377,> 25000,–
CNC(=O)c1cnc(N)c2cc(-c3ccc(C(C)(C)C)cc3)sc12,> 25000,188,202,–,–,–,39,> 25000,–
CNC(=O)c1cnc(N)c2cc(-c3ccc(OC(F)(F)F)cc3)sc12,> 25000,365,208,–,–,6850,70,> 25000,–
CNC(=O)c1cnc(N)c2cc(-c3ccc(C(C)(C)C#N)cc3)sc12,> 25000,118,146,–,–,1160,36,> 25000,–
CNC(=O)c1cnc(N)c2cc(-c3ccc(S(=O)(=O)NC(C)(C)C)cc3)sc12,> 25000,307,266,> 25000,625,1090,30,> 25000,0.012
CC(C)(C)NS(=O)(=O)c1ccc(-c2cc3c(N)ncc(C(=O)NCCO)c3s2)cc1,> 25000,434,932,–,–,–,78,> 25000,–
COCCNC(=O)c1cnc(N)c2cc(-c3ccc(S(=O)(=O)NC(C)(C)C)cc3)sc12,> 25000,1280,1480,> 25000,4450,6610,129,> 25000,0.023
CN(C)CCNC(=O)c1cnc(N)c2cc(-c3ccc(S(=O)(=O)NC(C)(C)C)cc3)sc12,> 25000,3330,4100,> 25000,> 25000,> 25000,708,> 25000,0.064
CC(C)(C)NS(=O)(=O)c1ccc(-c2cc3c(N)ncc(C(=O)NCCN4CCCCC4)c3s2)cc1,> 25000,2380,2670,–,–,> 25000,654,> 25000,–
CC(C)(C)NS(=O)(=O)c1ccc(-c2cc3c(N)ncc(C(=O)NCCN4CCOCC4)c3s2)cc1,> 25000,963,757,> 25000,7300,–,177,> 25000,0.101
CC(C)(C)NS(=O)(=O)c1ccc(-c2cc3c(N)ncc(C(=O)NCCCN4CCOCC4)c3s2)cc1,> 25000,645,1550,–,–,12600,206,> 25000,–
